According to the NIST ThermoML archive (doi:10.1016/j.jct.2017.10.013):
Where “and” joins values, the source holds several entries; their conditions need not be identical. Equal values may be shown once.

Experiment: molar heat capacity at constant pressure
Conditions: 101.33 kPa, Vacuum adiabatic calorimetry

[Ho+3].[Ho+3].[Se-2].[Se-2].[Se-2] [holmium selenide (Ho2Se3)]
molar heat capacity at constant pressure
Conditions | Crystal 1 | Crystal 2
60 K | – | 72.86 J/K/mol
63.99 K | – | 77.76 J/K/mol
68.39 K | – | 82.55 J/K/mol
70 K | – | 84.33 J/K/mol
72.45 K | – | 86.7 J/K/mol
76.57 K | – | 90.48 J/K/mol
80 K | – | 93.16 J/K/mol
80.18 K | – | 93.23 J/K/mol
85.83 K | – | 97.43 J/K/mol
90 K | – | 99.99 J/K/mol
91.8 K | – | 101 J/K/mol
97.35 K | – | 103.9 J/K/mol
100 K | – | 105.2 J/K/mol
102.86 K | – | 106.2 J/K/mol
108.72 K | – | 108.5 J/K/mol
110 K | – | 109.2 J/K/mol
114.93 K | – | 110.9 J/K/mol
120 K | – | 112.4 J/K/mol
121.18 K | – | 112.4 J/K/mol
127.91 K | – | 114.2 J/K/mol
130 K | – | 114.8 J/K/mol
135.11 K | – | 115.7 J/K/mol
140 K | – | 116.5 J/K/mol
142.05 K | – | 116.8 J/K/mol
148.79 K | – | 117.9 J/K/mol
150 K | – | 117.9 J/K/mol
155.35 K | – | 118.6 J/K/mol
160 K | – | 119 J/K/mol
161.76 K | – | 119.2 J/K/mol
168.04 K | – | 119.9 J/K/mol
170 K | – | 119.9 J/K/mol
174.8 K | – | 120.3 J/K/mol
180 K | – | 120.8 J/K/mol
182.04 K | – | 120.9 J/K/mol
189.15 K | – | 121.4 J/K/mol
190 K | – | 121.5 J/K/mol
196.14 K | – | 122.1 J/K/mol
200 K | – | 122.1 J/K/mol
203.04 K | – | 122.2 J/K/mol
209.83 K | – | 122.9 J/K/mol
210 K | – | 122.8 J/K/mol
216.54 K | – | 123.2 J/K/mol
217.14 K | – | 123.4 J/K/mol
220 K | – | 123.6 J/K/mol
220.38 K | – | 123.3 J/K/mol
222.96 K | – | 123.9 J/K/mol
223.16 K | – | 124 J/K/mol
224.88 K | – | 124.3 J/K/mol
226.8 K | – | 124.9 J/K/mol
228.4 K | 125 J/K/mol and 125.2 J/K/mol | 125.2 J/K/mol and 125 J/K/mol
229.68 K | 124.4 J/K/mol | –
229.7 K | 124.4 J/K/mol | –
230 K | 124.3 J/K/mol | –
230.95 K | 123.6 J/K/mol | –
232.22 K | 122.9 J/K/mol | –
233.8 K | 123.6 J/K/mol | –
235.69 K | 122.7 J/K/mol | –
236.16 K | 123.1 J/K/mol | –
238.19 K | 123.1 J/K/mol | –
240 K | 123.1 J/K/mol | –
241.31 K | 123.4 J/K/mol | –
242.82 K | 122.7 J/K/mol | –
244.42 K | 123.3 J/K/mol | –
249.67 K | 123.4 J/K/mol | –
250 K | 123.4 J/K/mol | –
256.45 K | 123.6 J/K/mol | –
260 K | 123.6 J/K/mol | –
263.41 K | 123.5 J/K/mol | –
270 K | 123.7 J/K/mol | –
270.54 K | 123.7 J/K/mol | –
274.01 K | 123.6 J/K/mol | –
276.98 K | 124 J/K/mol | –
280 K | 123.8 J/K/mol | –
280.45 K | 123.7 J/K/mol | –
284.65 K | 124 J/K/mol | –
289.2 K | 123.9 J/K/mol | –
290 K | 123.9 J/K/mol | –
293.71 K | 123.6 J/K/mol | –
298.15 K | 123.9 J/K/mol | –
298.18 K | 123.9 J/K/mol | –
300 K | 123.9 J/K/mol | –
302 K | 123.9 J/K/mol | –
302.6 K | 124.2 J/K/mol | –
